Measured values from US11160750B2, “Composition and method for promoting hair growth” (ZivMas LLC, priority 2017, dated 2021).

Assays:
DHT production = assay: ELISA for DHT detection in male HFDP cells; assay type: cell-based, human; details: 5 μM testosterone
Procedure: Dihydrotestosterone (DHT) detection was performed using the Aviva Systems Biology dihydrotestosterone ELISA kit (OKEH02531). The technique is based on a competitive binding enzyme immunoassay. 96 well plate has been pre-coated with an antibiotinylated dihydrotestosterone antibody. 50 μl of HFDP cells control and treated samples were added to the wells along with 50 μl of 1× dihydrotestosterone-Biotin complex. After incubation at 37° C. for 60 min wells were washed 3 times with 1× Wash buffer and was added to each well 100 μl of Avidin-HRP conjugate solution. Another step of incubation at 37° C. for 45 min and washing with 1× wash buffer was performed. 90 μl of TMB subtract was added and to each well followed by incubation in dark, 37° C. for 15-30 minutes. Finally, 50 μl of a stop solution was added and the quantification was determined by measuring the optical density at 450 nm in an enzyme-linked immunosorbent assay (Spark, Tecan) reader.

[1] = test system: human follicle derma papilla cells (HFDP); assay: Cell proliferation assay in HFDP cells; assay type: cell-based; details: 0.5 ug/ml
Procedure: Adherent human cell lines were cultured according to standard mammalian tissue culture protocols and sterile technique. Human follicle derma papilla cells were cultured in human follicle dermal papilla cell growth medium, ready to use, low-serum. Keratinocyte cells (HaCaT) were cultured in high glucose Dulbecco's Modified Eagle Medium with 10% serum. Normal human […] cells such as HFF and BJ were culture in BIOAMF-2 complete medium (Biological industries). All media was supplemented with streptomycin ([…]), penicillin (100 U/ml) and Nystatin (12.5 U/ml). Cells were incubated in 5% CO2 at 37° C. All tissue culture were maintained in 25 cm^2 Nunc™ cell culture treated EasYFlask™ (Thermofisher scientific) and all the media and supplements were obtained from Biological Industries. Treatment were performed by plating cells in a Nunc™ 96 micro well delta surface plates (Thermofisher scientific) in a starting confluence of 0.5×10^4 cells/well. After 24 h of incubation the cells were treated with the ZM-26 composition.
Viability of the cells following treatment was determined using a commercially available MTT assay kit (ABCAM, ab146345) and performed according to manufacturer's instructions. […] The quantification was determined by measuring the optical density at 570 nm in an enzyme-linked immunosorbent assay (Spark, Tecan) reader. […]

Q: For `C[C@]12CC[C@H]3[C@@H](CCC4=CC(=O)CC[C@@]43C)[C@@H]1CC[C@@H]2O` [testosterone], which DHT levels increase (DHT production) is on record?
A: 4.4 fold

Q: How did the “cell viability after 48 h treatment” value [1] turn out when `Nc1cc(N2CCCCC2)nc(N)[n+]1[O-]` [minoxidil] was run?
A: caused cell death
